The text below walks through data of patent US9422267B2, “Fused pyrimidine compounds and use thereof” (Medivation Technologies, Inc., priority 2012, dated 2016).

The structures appear in SMILES notation. Like-named read-outs stand apart in the source and are kept apart here.

The target in one test is T1, IR (Homo sapiens, UniProt P06213).
T1 construct: purchased Millipore 14-803
Nature of the test: In vitro IR enzymatic assay (ADP-Glo kinase assay). It is filed as biochemical. Particulars: activated IR; for IC50: read-out: IC50; for inhibition at 0.03 µM: 30 nM. On the procedure:
(§1) IC50 values of the compounds of the invention against IGF-1R and IR were measured in vitro using an ADP-Glo kinase assay Kit (Promega). […] Kinase reactions in both assays were conducted at 30° C. for 20 min with increasing concentrations of compounds of the invention.

For the next test, the target named is IGF1R (Homo sapiens, UniProt P08069). The test is described as follows: In vitro IGF-1R enzymatic assay (ADP-Glo kinase assay). More on the design: purchased Millipore 14-802. The settings on record: activated IGF-1R; for IC50: read-out: IC50; for inhibition at 0.03 µM: 30 nM. The class given is biochemical. On the procedure:
as §1
For orientation: In ADP-Glo the light output rises with the ADP produced.

For test [1], the system named is Akt phosphorylation induced by IGF-1R in HT-29 cells. Nature of the test: Western blot analysis of Akt phosphorylation induced by IGF-1R. It is filed as cell-based, Human. The settings on record: then IGF-1 10 ng/mL 10 min, HT-29. On the procedure:
Inhibition of Akt phosphorylation induced by IGF-1R was studied by western blot analysis. Human colon carcinoma HT-29 cells were seeded at a density of 8×10^4 cells/well in a 24-well plate and grown in DME/F12 media containing 10% FBS for 24 h. The cells were then depleted of serum by incubation in DME/F12 media lacking FBS for 24 h. […] […] Lysed cells were centrifuged at 13,000 rpm for 15 min and the protein concentration soluble fraction (supernatant) of each sample was determined using a BCA protein assay (Pierce).
(Immunoblotting shows a protein as a band on a membrane.)

Setting [2] is: average, read-out: % Inh @ 30 nM Avg.
The mark [3] stands for this setting: replicate N1, read-out: % Inh @ 30 nM (N1).
The mark [4] stands for this setting: replicate N2, read-out: % Inh @ 30 nM (N2).

T1 sequence (P06213 28-1382): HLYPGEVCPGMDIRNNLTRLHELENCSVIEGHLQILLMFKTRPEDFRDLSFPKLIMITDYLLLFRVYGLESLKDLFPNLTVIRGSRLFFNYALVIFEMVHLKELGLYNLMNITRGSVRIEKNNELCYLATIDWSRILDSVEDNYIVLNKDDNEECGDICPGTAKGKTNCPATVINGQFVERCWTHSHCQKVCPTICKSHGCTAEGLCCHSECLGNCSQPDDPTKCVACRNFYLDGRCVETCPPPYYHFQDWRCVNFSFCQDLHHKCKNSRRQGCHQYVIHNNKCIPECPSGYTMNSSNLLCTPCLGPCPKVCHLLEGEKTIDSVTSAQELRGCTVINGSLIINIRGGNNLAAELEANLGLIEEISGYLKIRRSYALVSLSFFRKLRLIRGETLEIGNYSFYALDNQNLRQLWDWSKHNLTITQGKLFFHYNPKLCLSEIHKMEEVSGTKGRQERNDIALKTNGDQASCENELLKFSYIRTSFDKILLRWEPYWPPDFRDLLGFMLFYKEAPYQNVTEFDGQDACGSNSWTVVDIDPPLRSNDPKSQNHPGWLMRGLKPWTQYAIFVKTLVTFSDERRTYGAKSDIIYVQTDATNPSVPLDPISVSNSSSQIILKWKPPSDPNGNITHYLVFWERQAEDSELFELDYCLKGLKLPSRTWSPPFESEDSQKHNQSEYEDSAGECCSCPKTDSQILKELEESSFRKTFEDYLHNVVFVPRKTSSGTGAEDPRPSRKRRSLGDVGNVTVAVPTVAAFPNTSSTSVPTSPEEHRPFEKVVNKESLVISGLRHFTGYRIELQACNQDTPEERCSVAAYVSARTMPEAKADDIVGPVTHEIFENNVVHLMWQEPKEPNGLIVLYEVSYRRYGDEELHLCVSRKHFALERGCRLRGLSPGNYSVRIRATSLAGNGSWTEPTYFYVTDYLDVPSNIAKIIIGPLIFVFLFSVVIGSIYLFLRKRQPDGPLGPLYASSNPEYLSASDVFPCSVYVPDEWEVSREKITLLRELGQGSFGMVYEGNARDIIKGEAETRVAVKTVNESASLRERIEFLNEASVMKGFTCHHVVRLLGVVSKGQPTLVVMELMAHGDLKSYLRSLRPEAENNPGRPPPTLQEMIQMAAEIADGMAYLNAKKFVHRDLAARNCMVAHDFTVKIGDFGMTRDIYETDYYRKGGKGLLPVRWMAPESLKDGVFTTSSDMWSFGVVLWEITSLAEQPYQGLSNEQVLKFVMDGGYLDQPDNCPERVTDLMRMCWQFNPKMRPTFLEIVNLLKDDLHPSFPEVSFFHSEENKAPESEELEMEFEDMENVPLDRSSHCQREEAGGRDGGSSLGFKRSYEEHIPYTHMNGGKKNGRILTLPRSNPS
Chain of IGF1R (P08069 31-1367): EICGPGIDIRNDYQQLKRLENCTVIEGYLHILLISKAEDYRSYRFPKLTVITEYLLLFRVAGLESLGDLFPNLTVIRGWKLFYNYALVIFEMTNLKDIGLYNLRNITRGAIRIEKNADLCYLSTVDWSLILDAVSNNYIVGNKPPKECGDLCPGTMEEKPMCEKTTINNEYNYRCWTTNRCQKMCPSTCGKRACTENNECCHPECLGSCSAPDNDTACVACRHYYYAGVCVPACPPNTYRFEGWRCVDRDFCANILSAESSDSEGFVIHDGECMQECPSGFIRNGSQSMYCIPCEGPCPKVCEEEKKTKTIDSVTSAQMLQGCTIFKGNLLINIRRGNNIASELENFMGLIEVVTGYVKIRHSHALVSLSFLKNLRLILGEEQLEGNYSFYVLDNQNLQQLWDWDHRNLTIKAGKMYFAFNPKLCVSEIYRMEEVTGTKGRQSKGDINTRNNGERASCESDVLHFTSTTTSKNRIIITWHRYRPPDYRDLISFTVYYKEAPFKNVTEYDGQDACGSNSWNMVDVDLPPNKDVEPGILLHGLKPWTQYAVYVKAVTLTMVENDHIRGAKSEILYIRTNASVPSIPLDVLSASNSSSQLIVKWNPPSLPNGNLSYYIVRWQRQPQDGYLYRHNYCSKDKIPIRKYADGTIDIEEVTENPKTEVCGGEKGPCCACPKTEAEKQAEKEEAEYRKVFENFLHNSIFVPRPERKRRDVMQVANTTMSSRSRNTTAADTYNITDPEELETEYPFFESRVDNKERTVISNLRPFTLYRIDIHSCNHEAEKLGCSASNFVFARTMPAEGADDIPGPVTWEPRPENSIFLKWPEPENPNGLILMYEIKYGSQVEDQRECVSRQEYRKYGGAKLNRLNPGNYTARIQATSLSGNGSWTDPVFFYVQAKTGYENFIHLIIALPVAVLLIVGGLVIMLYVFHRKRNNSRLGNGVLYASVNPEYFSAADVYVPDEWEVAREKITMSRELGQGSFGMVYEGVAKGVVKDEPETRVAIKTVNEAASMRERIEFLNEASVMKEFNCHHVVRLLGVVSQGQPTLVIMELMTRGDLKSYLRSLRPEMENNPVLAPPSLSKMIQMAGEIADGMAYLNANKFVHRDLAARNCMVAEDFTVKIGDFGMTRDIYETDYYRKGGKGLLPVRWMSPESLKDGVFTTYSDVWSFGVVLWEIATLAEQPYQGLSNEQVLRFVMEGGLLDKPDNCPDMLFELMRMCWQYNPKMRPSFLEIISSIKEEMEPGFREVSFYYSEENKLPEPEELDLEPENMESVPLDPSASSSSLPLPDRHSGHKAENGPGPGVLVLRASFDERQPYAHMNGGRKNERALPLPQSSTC

For the compound `CC(C)c1cc(Nc2nc(N3CCCC3C(=O)Nc3ccc(F)nc3)nc3c2CCCC3)n[nH]1` (single isomer, unassigned) [Compound 13b, N-(6-fluoropyridin-3-yl)-1-(4-(5-isopropyl-1H-pyrazol-3-ylamino)-5,6,7,8-tetrahydroquinazolin-2-yl)pyrrolidine-2-carboxamide], the IC50 – broadly, the point on the concentration scale where inhibition reaches its midpoint – is 13 nM at IR and 17 nM on IGF1R. Further, the “phosphorylated AKT levels normalized to actin levels (pAKT/actin)” value worked out at 0.22 in test [1] (0.1 nM compound 2 h), 0.09 in test [1] (1 nM compound 2 h), 0.00 in test [1] (10 nM compound 2 h) and 0.00 in test [1] (100 nM compound 2 h).

In the case of `CC(C)c1cc(Nc2nc(N3CCCC3C(=O)Nc3nccs3)nc3c2CCC3)n[nH]1` (racemic) [Compound 68, 1-(4-(5-isopropyl-1H-pyrazol-3-ylamino)-6,7-dihydro-5H-cyclopenta[d]pyrimidin-2-yl)-N-(thiazol-2-yl)pyrrolidine-2-carboxamide], the IC50 on IR came to 11 nM.

With `O=C(Nc1ccc(F)nc1)C1CCCCN1c1nc2c(c(Nc3cc(C4CCCC4)[nH]n3)n1)CCC2` (single isomer, unassigned) [Compound 17a, 1-(4-(5-cyclopentyl-1H-pyrazol-3-ylamino)-6,7-dihydro-5H-cyclopenta[d]pyrimidin-2-yl)-N-(6-fluoropyridin-3-yl)piperidine-2-carboxamide], the inhibition at 0.03 µM was 3% at IR (setting [2]); 2% at IR (setting [3]); 5% at IR (setting [4]); 18% on IGF1R (setting [2]); 12% at IGF1R (setting [3]); 24% on IGF1R (setting [4]). Further, the “phosphorylated AKT levels normalized to actin levels (pAKT/actin)” value in test [1] (0.1 nM compound 2 h) worked out at 0.89.

On to `CC(C)c1cc(Nc2nc(N3CCCC3C(=O)Nc3ccc(N)nc3)nc3c2CCC3)n[nH]1` (racemic) [Compound 72, N-(6-aminopyridin-3-yl)-1-(4-(5-isopropyl-1H-pyrazol-3-ylamino)-6,7-dihydro-5H-cyclopenta[d]pyrimidin-2-yl)pyrrolidine-2-carboxamide], for which, on IR, the IC50 stood at 16 nM.

On to `O=C(Nc1ccc(F)nc1)C1CCCN1c1nc2c(c(Nc3cc(C4CC4)[nH]n3)n1)CCCC2` (single isomer, unassigned) [Compound 14b, 1-(4-(5-cyclopropyl-1H-pyrazol-3-ylamino)-5,6,7,8-tetrahydroquinazolin-2-yl)-N-(6-fluoropyridin-3-yl)pyrrolidine-2-carboxamide], for which the inhibition at 0.03 µM on IR (setting [2]) was found to be 81%; at IR (setting [3]), 82%; on IR (setting [4]) it was 81%; on IGF1R (setting [2]), 77%; at IGF1R (setting [3]), 77%; at IGF1R (setting [4]) it was 76%. Further, the results for the IC50 on IR and on IGF1R were 16 nM and 22 nM, respectively. The “phosphorylated AKT levels normalized to actin levels (pAKT/actin)” value was determined as 0.51 in test [1] (0.1 nM compound 2 h), 0.49 in test [1] (1 nM compound 2 h), 0.02 in test [1] (10 nM compound 2 h) and 0.00 in test [1] (100 nM compound 2 h).

For `O=C(Nc1ccc(F)nc1)C1CCCN1c1nc2c(c(Nc3cc(C4CCCC4)[nH]n3)n1)CCCC2` (single isomer, unassigned) [Compound 15a, 1-(4-(5-cyclopentyl-1H-pyrazol-3-ylamino)-5,6,7,8-tetrahydroquinazolin-2-yl)-N-(6-fluoropyridin-3-yl)pyrrolidine-2-carboxamide], the inhibition at 0.03 µM was 19% at IGF1R (setting [2]), 17% on IGF1R (setting [3]) and 20% at IGF1R (setting [4]). The “phosphorylated AKT levels normalized to actin levels (pAKT/actin)” value in test [1] (0.1 nM compound 2 h) is reported as 0.70; in test [1] (1 nM compound 2 h), 0.89; in test [1] (10 nM compound 2 h), 0.92; in test [1] (100 nM compound 2 h), 0.59.

`CC(C)c1cc(Nc2nc(N3CCCC3C(=O)Nc3ccc(F)nc3)nc3c2CC(C)(C)C3)n[nH]1` (racemic) [Compound 50, N-(6-fluoropyridin-3-yl)-1-(4-((5-isopropyl-1H-pyrazol-3-yl)amino)-6,6-dimethyl-6,7-dihydro-5H-cyclopenta[d]pyrimidin-2-yl)pyrrolidine-2-carboxamide]: the inhibition at 0.03 µM was determined as 51% on IR (setting [2]) and 35% at IGF1R (setting [2]). The IC50 on IR stood at 36 nM.

For `CC(C)c1cc(Nc2nc(N3CCCCC3C(=O)Nc3ccc(F)nc3)nc3c2CCC3)n[nH]1` (single isomer, unassigned) [Compound 16a, N-(6-fluoropyridin-3-yl)-1-(4-(5-isopropyl-1H-pyrazol-3-ylamino)-6,7-dihydro-5H-cyclopenta[d]pyrimidin-2-yl)piperidine-2-carboxamide], the inhibition at 0.03 µM at IGF1R (setting [2]) stood at 21%; on IGF1R (setting [3]) it was 27%. For the same compound, the “phosphorylated AKT levels normalized to actin levels (pAKT/actin)” value in test [1] (0.1 nM compound 2 h) is listed as 0.82; in test [1] (1 nM compound 2 h), 0.62; in test [1] (10 nM compound 2 h), 0.61; in test [1] (100 nM compound 2 h) it was 0.30.

As to `COC1CC(C(=O)Nc2ccc(F)nc2)N(c2nc3c(c(Nc4cc(C5CC5)[nH]n4)n2)CCC3)C1` (single isomer, unassigned) [Compound 21b], at IR (setting [2]), the inhibition at 0.03 µM was determined as 30%. For the same compound, on IR, the half-maximal inhibitory concentration (IC50) worked out at 120 nM.

As for `CC(C)c1cc(Nc2nc(N3CC(O)CC3C(=O)Nc3nccs3)nc3c2CCC3)n[nH]1` (racemic) [Compound 71, 4-hydroxy-1-(4-(5-isopropyl-1H-pyrazol-3-ylamino)-6,7-dihydro-5H-cyclopenta[d]pyrimidin-2-yl)-N-(thiazol-2-yl)pyrrolidine-2-carboxamide], the half-maximal inhibitory concentration (IC50) at IR came to 44 nM.

As for `CC(C)c1cc(Nc2nc(N3CC(O)CC3C(=O)Nc3ccc(F)nc3)nc3c2CCC3)n[nH]1` (racemic) [Compound 70, N-(6-fluoropyridin-3-yl)-4-hydroxy-1-(4-(5-isopropyl-1H-pyrazol-3-ylamino)-6,7-dihydro-5H-cyclopenta[d]pyrimidin-2-yl)pyrrolidine-2-carboxamide], the IC50 on IR is 22 nM.

Turning to `O=C(Nc1ccc(F)nc1)C1CCCCN1c1nc2c(c(Nc3cc(C4CC4)[nH]n3)n1)CCC2` (single isomer, unassigned) [Compound 9b, 1-(4-(5-cyclopropyl-1H-pyrazol-3-ylamino)-6,7-dihydro-5H-cyclopenta[d]pyrimidin-2-yl)-N-(6-fluoropyridin-3-yl)piperidine-2-carboxamide], the inhibition at 0.03 µM at IR (setting [2]) is 6%; at IR (setting [3]) it was 3%; at IR (setting [4]) it was 9%; on IGF1R (setting [2]) it was 16%; on IGF1R (setting [3]), 14%; on IGF1R (setting [4]) it was 17%. Besides, the “phosphorylated AKT levels normalized to actin levels (pAKT/actin)” value in test [1] (100 nM compound 2 h) was determined as 0.78.

Take `CC(C)c1cc(Nc2nc(N3CCCC3C(=O)Nc3ccncn3)nc3c2CCC3)n[nH]1` (racemic) [Compound 69, 1-(4-(5-isopropyl-1H-pyrazol-3-ylamino)-6,7-dihydro-5H-cyclopenta[d]pyrimidin-2-yl)-N-(pyrimidin-4-yl)pyrrolidine-2-carboxamide]: the 50% inhibitory concentration (IC50) at IR was found to be 32 nM.
